For one assay, the target named is FGFR1. Put plainly: Millipore kinase assay, radiolabelled phosphopeptide filter binding, IC50 estimate. To be noted: estimated from inhibition at three compound concentrations; ATP at the Km. It counts as biochemical. The protocol:
(§1) Kinase assays at Millipore were performed using a radiolabelled phosphopeptide filter binding detection system, in duplicate, at each compound concentration. The ATP substrate concentration in the reactions was at the Km for each enzyme.
(§2) To allow for a more direct comparison of compound inhibition, an IC50 value was estimated from the inhibition determined at three compound concentrations. Several assumptions were made to allow this calculation using a 4 parameter non linear curve fit model, including full inhibition set at 100%, no inhibition set to 0%, and a curve fit parameter set at 1. The inflection point was reported as the estimated IC50.

A further assay deals with T1, FLT-1 (Homo sapiens, UniProt P17948).
T1 construct: purchased Millipore (assay service)
Described as above. It counts as biochemical. To be noted: estimated from inhibition at three compound concentrations; ATP at the Km. The method, then: as §1, §2

In the next assay the target is T2, KDR (Homo sapiens, UniProt P35968).
T2 construct: purchased Millipore (assay service)
The assay is described as above. It counts as biochemical. The following applies: estimated from inhibition at three compound concentrations; ATP at the Km. The protocol: as §1, §2

A further assay addresses T3, PDGFRβ (Homo sapiens, UniProt P09619).
T3 construct: purchased Millipore (assay service)
The assay is described as above. To be noted: estimated from inhibition at three compound concentrations; ATP at the Km. It counts as biochemical. The protocol:
as §1, §2

For another assay, the target named is Lck kinase (Homo sapiens, UniProt P06239). Put plainly: Kinase Selectivity Assay (CEREP, HTRF). Format: biochemical. The following applies: read-out: % Inhibition at 10 μM Concentration, Lck. The protocol: (§3) kinase, ROCK2, RSK2, Src kinase, Syk, and TRKA. The % Inhibition was determined
A further assay addresses T4, Brk (Homo sapiens, UniProt Q13882).
T4 construct: CEREP, France (ran the assays)
As to the kind of experiment: Kinase Selectivity Assay (CEREP, HTRF). It counts as biochemical. To be noted: read-out: % Inhibition at 10 μM Concentration, Brk. The method, then:
as §3
For orientation: Time-resolved FRET reads energy transfer from a long-lived donor to a nearby acceptor.

The next assay concerns the target T5, CaMK2a (Homo sapiens, UniProt Q9UQM7).
T5 construct: CEREP, France (ran the assays)
As to the kind of experiment: Kinase Selectivity Assay (CEREP, HTRF). Format: biochemical. The following applies: read-out: % Inhibition at 10 μM Concentration, CaMK2alpha. The protocol:
as §3

The target in a further assay is Ret (Homo sapiens, UniProt P07949). Put plainly: Kinase Selectivity Assay (CEREP, HTRF). It counts as biochemical. To be noted: read-out: % Inhibition at 10 μM Concentration, Ret. The protocol:
as §3

The next assay addresses PKCb2 (Homo sapiens, UniProt P05771). Put plainly: Kinase Selectivity Assay (CEREP, HTRF). Format: biochemical. The following applies: read-out: % Inhibition at 10 μM Concentration, PKCbeta 2. The protocol: as §3
Another assay has as its target T6, EphB4 kinase (Homo sapiens, UniProt P54760).
T6 construct: CEREP, France (ran the assays)
T6 sequence (P54760 16-987): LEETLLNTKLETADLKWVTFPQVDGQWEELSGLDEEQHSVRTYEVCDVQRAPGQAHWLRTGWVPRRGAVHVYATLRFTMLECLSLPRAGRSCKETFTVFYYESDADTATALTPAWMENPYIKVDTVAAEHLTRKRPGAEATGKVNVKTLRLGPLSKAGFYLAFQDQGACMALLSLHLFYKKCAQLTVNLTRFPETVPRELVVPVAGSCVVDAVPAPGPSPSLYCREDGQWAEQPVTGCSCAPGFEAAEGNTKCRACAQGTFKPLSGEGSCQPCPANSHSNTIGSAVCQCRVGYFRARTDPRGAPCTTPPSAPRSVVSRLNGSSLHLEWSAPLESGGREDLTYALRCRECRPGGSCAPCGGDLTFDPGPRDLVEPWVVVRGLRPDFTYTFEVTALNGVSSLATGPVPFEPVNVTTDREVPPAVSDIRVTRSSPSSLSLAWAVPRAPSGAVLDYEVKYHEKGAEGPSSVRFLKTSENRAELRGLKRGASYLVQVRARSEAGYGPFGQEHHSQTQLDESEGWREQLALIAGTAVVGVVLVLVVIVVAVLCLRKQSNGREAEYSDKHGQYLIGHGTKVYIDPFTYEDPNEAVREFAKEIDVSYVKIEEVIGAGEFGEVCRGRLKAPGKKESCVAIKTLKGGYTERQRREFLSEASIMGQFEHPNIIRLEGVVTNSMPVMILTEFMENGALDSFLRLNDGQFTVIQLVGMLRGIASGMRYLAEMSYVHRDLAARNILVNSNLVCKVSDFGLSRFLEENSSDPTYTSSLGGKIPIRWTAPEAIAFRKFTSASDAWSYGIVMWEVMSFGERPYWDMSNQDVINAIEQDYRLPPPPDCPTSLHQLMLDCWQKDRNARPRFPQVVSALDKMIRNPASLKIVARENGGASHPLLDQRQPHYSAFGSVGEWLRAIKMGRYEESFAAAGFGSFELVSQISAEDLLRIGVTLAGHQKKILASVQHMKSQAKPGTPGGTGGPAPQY
Put plainly: Kinase Selectivity Assay (CEREP, HTRF). Format: biochemical. To be noted: read-out: % Inhibition at 10 μM Concentration, EphB4. The method, then: as §3

In a further assay the target is T7, ERK2 (P42mapk) (Homo sapiens, UniProt P28482).
T7 construct: CEREP, France (ran the assays)
T7 sequence (P28482 whole entry): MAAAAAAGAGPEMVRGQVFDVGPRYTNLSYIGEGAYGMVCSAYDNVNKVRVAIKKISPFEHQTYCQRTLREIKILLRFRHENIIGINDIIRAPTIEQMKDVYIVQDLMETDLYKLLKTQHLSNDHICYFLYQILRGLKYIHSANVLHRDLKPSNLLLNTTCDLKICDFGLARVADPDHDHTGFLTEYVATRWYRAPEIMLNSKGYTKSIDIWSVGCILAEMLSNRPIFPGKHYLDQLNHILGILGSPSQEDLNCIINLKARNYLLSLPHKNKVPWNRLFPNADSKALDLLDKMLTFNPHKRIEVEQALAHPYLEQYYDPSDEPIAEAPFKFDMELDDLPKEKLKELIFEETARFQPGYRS
As to the kind of experiment: Kinase Selectivity Assay (CEREP, HTRF). Format: biochemical. To be noted: read-out: % Inhibition at 10 μM Concentration, ERK (P42mapk). The protocol: as §3

A further assay deals with T8, p38d kinase (Homo sapiens, UniProt O15264).
T8 sequence (O15264 1-365): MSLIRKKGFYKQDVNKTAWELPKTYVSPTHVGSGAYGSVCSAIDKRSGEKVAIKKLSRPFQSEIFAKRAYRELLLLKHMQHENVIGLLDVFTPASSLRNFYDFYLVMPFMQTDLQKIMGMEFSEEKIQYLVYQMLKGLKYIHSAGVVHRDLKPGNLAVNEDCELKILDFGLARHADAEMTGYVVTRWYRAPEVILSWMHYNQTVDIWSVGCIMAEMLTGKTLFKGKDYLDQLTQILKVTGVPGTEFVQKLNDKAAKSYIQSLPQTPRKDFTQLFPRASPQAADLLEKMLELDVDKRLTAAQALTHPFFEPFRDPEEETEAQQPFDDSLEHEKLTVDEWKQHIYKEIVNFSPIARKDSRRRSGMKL
As to the kind of experiment: Kinase Selectivity Assay (CEREP, HTRF). The following applies: read-out: % Inhibition at 10 μM Concentration, p38delta. It counts as biochemical. The method, then:
as §3

For another assay, the target named is Abl (Homo sapiens, UniProt P00519). As to the kind of experiment: Kinase Selectivity Assay (CEREP, HTRF). On the set-up: CEREP, France (ran the assays). It counts as biochemical. The following applies: read-out: % Inhibition at 10 μM Concentration, Abl. The method, then:
as §3

In a further assay the test system is AMPKa. As to the kind of experiment: Kinase Selectivity Assay (CEREP, HTRF). Format: biochemical, human. The method, then:
as §3

Bounds are passed on as bounds.

Sequence of Ret (P07949 29-1114): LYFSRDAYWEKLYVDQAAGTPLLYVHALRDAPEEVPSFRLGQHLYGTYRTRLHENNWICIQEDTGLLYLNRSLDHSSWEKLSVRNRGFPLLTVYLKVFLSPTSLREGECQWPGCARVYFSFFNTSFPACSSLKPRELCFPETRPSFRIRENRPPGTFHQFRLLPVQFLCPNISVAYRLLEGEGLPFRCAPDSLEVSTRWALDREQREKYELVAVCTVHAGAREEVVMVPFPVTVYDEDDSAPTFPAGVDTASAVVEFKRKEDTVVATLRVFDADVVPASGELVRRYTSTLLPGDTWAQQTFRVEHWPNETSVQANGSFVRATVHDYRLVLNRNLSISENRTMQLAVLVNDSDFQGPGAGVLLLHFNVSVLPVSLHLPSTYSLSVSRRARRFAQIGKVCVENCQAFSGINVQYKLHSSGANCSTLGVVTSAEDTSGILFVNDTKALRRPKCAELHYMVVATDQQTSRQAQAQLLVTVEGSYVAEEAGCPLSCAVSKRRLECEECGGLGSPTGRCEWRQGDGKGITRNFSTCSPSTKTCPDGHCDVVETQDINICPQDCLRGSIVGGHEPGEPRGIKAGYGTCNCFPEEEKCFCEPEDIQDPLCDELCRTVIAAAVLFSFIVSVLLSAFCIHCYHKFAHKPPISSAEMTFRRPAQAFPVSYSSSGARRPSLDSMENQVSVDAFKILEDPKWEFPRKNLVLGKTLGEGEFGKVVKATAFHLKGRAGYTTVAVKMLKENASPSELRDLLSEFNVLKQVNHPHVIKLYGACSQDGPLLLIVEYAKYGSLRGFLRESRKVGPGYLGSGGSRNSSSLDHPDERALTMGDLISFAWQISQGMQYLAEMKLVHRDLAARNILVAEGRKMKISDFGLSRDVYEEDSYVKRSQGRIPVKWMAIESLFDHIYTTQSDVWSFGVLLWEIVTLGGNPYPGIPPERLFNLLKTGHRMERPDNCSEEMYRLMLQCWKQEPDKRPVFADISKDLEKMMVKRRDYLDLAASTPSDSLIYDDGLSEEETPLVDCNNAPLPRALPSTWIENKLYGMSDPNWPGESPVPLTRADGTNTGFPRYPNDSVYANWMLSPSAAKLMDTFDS
T5 sequence (Q9UQM7 whole entry): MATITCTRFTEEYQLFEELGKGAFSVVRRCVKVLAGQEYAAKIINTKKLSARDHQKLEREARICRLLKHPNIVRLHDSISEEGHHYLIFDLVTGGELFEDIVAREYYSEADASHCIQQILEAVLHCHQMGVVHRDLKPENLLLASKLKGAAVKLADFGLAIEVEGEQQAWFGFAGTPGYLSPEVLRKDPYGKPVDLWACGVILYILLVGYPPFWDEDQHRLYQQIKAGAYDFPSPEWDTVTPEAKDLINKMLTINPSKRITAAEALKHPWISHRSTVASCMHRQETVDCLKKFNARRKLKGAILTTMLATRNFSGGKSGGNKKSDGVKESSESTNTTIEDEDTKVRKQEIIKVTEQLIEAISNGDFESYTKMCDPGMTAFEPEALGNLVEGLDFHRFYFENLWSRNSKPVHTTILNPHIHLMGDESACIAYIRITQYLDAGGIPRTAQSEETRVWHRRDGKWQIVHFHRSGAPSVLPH
T4 sequence (Q13882 whole entry): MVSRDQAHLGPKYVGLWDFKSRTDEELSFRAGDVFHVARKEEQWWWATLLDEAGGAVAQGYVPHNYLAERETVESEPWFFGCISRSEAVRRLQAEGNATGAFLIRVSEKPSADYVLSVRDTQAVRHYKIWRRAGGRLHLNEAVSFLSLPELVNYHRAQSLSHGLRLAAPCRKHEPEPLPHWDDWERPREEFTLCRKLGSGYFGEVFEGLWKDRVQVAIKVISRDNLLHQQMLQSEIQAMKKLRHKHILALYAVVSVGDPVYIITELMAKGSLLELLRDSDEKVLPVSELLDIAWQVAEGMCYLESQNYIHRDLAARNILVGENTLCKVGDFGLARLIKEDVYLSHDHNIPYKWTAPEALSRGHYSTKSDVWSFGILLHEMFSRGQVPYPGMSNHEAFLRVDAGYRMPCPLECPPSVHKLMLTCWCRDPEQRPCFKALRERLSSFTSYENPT
Sequence of Abl (P00519 whole entry): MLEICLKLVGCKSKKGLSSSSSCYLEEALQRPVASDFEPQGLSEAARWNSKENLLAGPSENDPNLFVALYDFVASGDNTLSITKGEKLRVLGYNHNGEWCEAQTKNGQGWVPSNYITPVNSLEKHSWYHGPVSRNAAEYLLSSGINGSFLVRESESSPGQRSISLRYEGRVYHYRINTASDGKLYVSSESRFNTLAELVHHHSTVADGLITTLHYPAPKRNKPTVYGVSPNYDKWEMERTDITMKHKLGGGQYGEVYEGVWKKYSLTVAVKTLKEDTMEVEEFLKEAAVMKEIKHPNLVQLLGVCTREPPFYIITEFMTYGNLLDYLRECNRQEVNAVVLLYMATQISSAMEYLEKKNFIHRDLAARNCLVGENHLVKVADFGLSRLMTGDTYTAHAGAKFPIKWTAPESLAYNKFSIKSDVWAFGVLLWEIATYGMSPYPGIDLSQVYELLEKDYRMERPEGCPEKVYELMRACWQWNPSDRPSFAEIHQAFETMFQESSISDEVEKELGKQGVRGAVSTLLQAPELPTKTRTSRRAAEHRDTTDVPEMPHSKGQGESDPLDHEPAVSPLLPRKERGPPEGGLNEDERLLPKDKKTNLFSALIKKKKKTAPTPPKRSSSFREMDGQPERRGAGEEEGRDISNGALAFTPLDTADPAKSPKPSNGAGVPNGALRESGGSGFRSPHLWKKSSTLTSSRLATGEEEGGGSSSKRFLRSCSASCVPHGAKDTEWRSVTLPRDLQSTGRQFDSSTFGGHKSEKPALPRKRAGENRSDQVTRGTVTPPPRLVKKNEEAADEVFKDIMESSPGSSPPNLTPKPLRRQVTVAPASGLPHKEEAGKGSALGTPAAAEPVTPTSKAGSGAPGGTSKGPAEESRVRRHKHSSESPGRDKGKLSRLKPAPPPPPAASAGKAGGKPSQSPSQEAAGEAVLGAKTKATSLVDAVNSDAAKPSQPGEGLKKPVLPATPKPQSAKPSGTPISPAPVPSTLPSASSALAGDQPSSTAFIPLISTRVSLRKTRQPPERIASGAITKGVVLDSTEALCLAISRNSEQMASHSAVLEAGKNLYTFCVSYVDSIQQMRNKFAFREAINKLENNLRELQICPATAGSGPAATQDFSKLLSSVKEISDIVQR
T3 sequence (P09619 33-1106): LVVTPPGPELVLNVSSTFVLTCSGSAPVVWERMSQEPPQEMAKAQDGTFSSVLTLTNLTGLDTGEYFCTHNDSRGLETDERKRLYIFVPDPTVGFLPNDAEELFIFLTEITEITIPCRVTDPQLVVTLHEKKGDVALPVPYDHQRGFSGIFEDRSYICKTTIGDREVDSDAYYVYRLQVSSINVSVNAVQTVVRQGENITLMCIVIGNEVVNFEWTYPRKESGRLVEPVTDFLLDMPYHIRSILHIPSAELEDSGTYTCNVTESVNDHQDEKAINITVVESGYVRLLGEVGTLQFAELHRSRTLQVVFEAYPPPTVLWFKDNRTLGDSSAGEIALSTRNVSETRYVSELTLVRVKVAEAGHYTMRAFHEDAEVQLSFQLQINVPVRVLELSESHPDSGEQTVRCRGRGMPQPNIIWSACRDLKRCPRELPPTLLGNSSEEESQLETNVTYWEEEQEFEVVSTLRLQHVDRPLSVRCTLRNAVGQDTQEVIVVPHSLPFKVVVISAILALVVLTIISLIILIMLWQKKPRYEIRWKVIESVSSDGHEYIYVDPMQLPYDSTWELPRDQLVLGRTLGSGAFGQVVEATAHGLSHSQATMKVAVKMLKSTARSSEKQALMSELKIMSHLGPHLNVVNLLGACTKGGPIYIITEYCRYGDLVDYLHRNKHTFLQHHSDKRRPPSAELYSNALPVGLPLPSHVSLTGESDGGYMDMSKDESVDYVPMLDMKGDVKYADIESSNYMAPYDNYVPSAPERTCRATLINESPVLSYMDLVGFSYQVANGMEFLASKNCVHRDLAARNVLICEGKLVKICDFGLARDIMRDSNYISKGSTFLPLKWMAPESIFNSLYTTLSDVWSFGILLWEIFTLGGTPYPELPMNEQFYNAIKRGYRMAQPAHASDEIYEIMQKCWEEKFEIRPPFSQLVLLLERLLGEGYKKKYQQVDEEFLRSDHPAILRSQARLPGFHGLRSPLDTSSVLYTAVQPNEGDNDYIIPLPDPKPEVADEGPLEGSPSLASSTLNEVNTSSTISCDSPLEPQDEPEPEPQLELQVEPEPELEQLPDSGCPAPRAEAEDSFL

For the compound `COc1ccc2c(c1)C(=Cc1ccc3c(-c4ccc(N5CCN(C)CC5)nc4)n[nH]c3c1)C(=O)N2` (mixture of isomers) [Example A97, (E and Z)-5-methoxy-3-((3-(6-(4-methylpiperazin-1-yl)pyridin-3-yl)-1H-indazol-6-yl)methylene)indolin-2-one], the IC50 (usually the concentration that gives 50% inhibition) on FGFR1 is below 5 µM; on FLT-1, below 5 µM; at KDR it was below 5 µM; at PDGFRβ, 5 to 50 µM. Also, the inhibition at 10 µM turned out to be 89% at Lck kinase; 7% on Brk; 14% at CaMK2a; 93% on Ret; 37% at PKCb2; 6% on EphB4 kinase. Also, the inhibition at 10 µM on ERK2 (P42mapk) was -9%; on p38d kinase, 13%; on Abl, 99%. Besides, the % Inhibition (usually the drop in the measured response relative to a control, in per cent) at 10 μM Concentration, AMPKalpha in the assay on AMPKa amounted to 76%.
For `CN(C)Cc1ccc(/C=C/c2n[nH]c3cc(C=C4C(=O)Nc5ccccc54)ccc23)cc1` (mixture of isomers) [Example A106, (E and Z)-3-[(3-{(E)-2-[4-((dimethylamino)methyl)-phenyl]-ethenyl}-1H-indazol-6-yl)methylidene]-1,3-dihydro-2H-indol-2-one 2,2,2-trifluoroacetate], the IC50 at FGFR1, at FLT-1 and on PDGFRβ was below 5 µM each time.
Regarding `O=C1Nc2ccccc2C1=Cc1ccc2c(/C=C/c3ccccn3)n[nH]c2c1` (mixture of isomers) [Example A41, (E and Z)-3-((3-((E)-2-(pyridin-2-yl)vinyl)-1H-indazol-6-yl)methylene)indolin-2-one], the IC50 at FGFR1, on FLT-1, on KDR and on PDGFRβ was below 5 µM throughout. In addition, the inhibition at 10 µM stood at 88% at Lck kinase; 40% on Brk; 31% at CaMK2a; 98% on Ret; 12% at PKCb2; 85% at EphB4 kinase. Moreover, the inhibition at 10 µM was 14% on ERK2 (P42mapk), -5% on p38d kinase and 100% at Abl. Moreover, the “% Inhibition at 10 μM Concentration, AMPKalpha” value (shortened to “% Inhibition”) with AMPKa was 81%.
Take `O=C1Nc2ccccc2/C1=C\c1ccc2[nH]nnc2c1` [Example A1, (E)-3-((1H-benzo[d][1,2,3]triazol-5-yl)methylene)indolin-2-one]: the inhibition at 10 µM on Brk came to 5%; on CaMK2a, 4%; at Ret, 67%; on PKCb2, 0%; on EphB4 kinase, 5%; at ERK2 (P42mapk) it was 3%. Besides, the figures for the inhibition at 10 µM at p38d kinase and on Abl were 0% and 34%, respectively. Moreover, the “% Inhibition” value in the assay with AMPKa amounted to 15%.
On to `O=C1Nc2ccccc2/C1=C\c1ccc2cn[nH]c2c1` [Example A5, (E)-3-((1H-indazol-6-yl)methylene)indolin-2-one], for which the inhibition at 10 µM was 0% on Lck kinase; -6% at Brk; -3% on CaMK2a; 41% on Ret; 2% at PKCb2; -5% on EphB4 kinase. Further, the inhibition at 10 µM is 0% at ERK2 (P42mapk), -8% on p38d kinase and 24% at Abl. Besides, in the assay on AMPKa, the “% Inhibition” value is listed as 54%.
Consider `O=C1Nc2ccccc2/C1=C\c1ccc2c(/C=C/c3ccccc3Cl)n[nH]c2c1` [Example A60, (E)-3-((3-((E)-2-chlorostyryl)-1H-indazol-6-yl)methylene)indolin-2-one], for which the inhibition at 10 µM is 30% at Lck kinase; 4% at Brk; -2% on CaMK2a; 33% on Ret; 4% on PKCb2; -14% on EphB4 kinase. In addition, the inhibition at 10 µM turned out to be 2% at ERK2 (P42mapk), 3% at p38d kinase and 40% on Abl. For the same compound, the “% Inhibition” value in the assay on AMPKa turned out to be 8%.

These data come from patent publication US8765748B2, “Indazolyl, benzimidazolyl, benzotriazolyl substituted indolinone derivatives as kinase inhibitors useful in the treatment of cancer” (University Health Network, priority 2007, dated 2014).
